Measurements taken from patent US7985771B2, “Furanone derivatives” (Monsanto Technology LLC, priority 2002, dated 2011).

Key:
[1] = test system: ELAM (E-selectin) expression in endothelial cells; experiment: E-selectin (ELAM) cell inflammation assay; assay type: cell-based; conditions: LPS and IL-1β stimulation, read-out: reduction of expression of ELAM, EC50
Method: Endothelial-Leukocyte Adhesion Molecule (ELAM), also known as E-selectin, is expressed on the surface of endothelial cells. In this assay, lipopolysaccharide (LPS) and IL-1β are used to stimulate the expression of ELAM; test agents are tested for their abilities to reduce this expression, in accordance with studies showing that reduction of leukocyte adhesion to endothelial cell surface is associated with decreased cellular damage (e.g., Takada, M., Et al., Transplantation 64: 1520-25, 1997; Steinberg, J. B., et al., J. Heart Lung Trans. 13:306-313, 1994).
Endothelial cells may be selected from any of a number of sources and cultured according to methods known in the art; including, for example, coronary artery endothelial cells, human brain microvascular endothelial cells (HBMEC; Hess, D.C., et al., Neurosci. Left. 213(1): 37-40, 1996), or lung endothelial cells. Cells are conveniently cultured in 96-well plates. Cells are stimulated by adding a solution to each well containing 10 μg/ml LPS and 100 pg/ml IL-1β for 6 hours in the presence of test agent (specific concentrations and time may be adjusted depending on the cell type). Treatment buffer is removed and replaced with pre-warmed Fixing Solution® (100 μl/well) for 25 minutes at room temperature. Cells are then washed 3×, then incubated with Blocking Buffer (PBS+2% FBS) for 25 minutes at room temperature. Blocking Buffer containing Monoclonal E-Selectin Antibody (1:750, Sigma Catalog #S-9555) is added to each well. Plates are sealed and stored at 4° overnight. Plates are washed 4× with 160 μL Blocking Buffer per well. Second Antibody-HRP diluted 1:5000 in Blocking Buffer is then added (100 μL/well), and plates are incubated at room temperature (protected from light) for two hours. Plates are then washed 4× with Blocking Buffer before addition of 100 μL of ABTS Substrate solution at room temperature (Zymed, Catalog #00-2024). Wells are allowed to develop for 35 minutes, before measurement at 402 nm in a Fluoroskan® Reader with shake program for 10 seconds. Positive results are recorded as a decrease in ELAM concentration in tested wells, as compared to control wells.

[2] = test system: IL-1beta release from a mouse microglial cell line; experiment: Interleukin-1 beta microglial cell assay; assay type: cell-based; conditions: LPS and IFN gamma stimulation, 24 hours, read-out: inhibition of IL-1beta induction, EC50
Method: This assay measures the release of IL-1β from a mouse microglial cell line following an inflammatory challenge with LPS and interferon-gamma. The ability of test articles to inhibit microglial cell activation and IL-1beta release is determined by co-incubation of the test article with the inflammatory challenge. Cytokine release is measured using a mouse IL-1β ELISA and cell toxicity is determined using Cell Tracker Green (a fluorescent dye that measures cell viability).
Mouse microglial cells were seeded in poly-D-lysine coated 96-well plates at a density of 10,000 cells/well and allowed to attach for 24 hours. Cells were stimulated by addition of LPS (10 μg/ml) and IFN gamma (10 ng/ml) in the presence or absence of test article. The cells were then incubated for 24 hours at 37° C., after which time the media was removed and used for cytokine determination as described below.
Viability of mouse microglial cells after exposure to the test article was determined using a fluorescent viability dye, Cell Tracker Green. Cell Tracker Green was used at a working concentration of 5 μM in 1× HBSS. Cells were washed once with HBSS (200 μl/well) and 100 μl Cell Tracker Green was added to each well. Cells were then incubated at 37° C. for 30 minutes, after which time the Cell Tracker was removed and the cells were washed once with HBSS (200 μl/well). 100 μl fresh HBSS was added to each well and the plate was read on a Fluoroskan plate reader using an excitation wavelength of 485 nm and an emission wavelength of 538 nm.
1. The IL-1β capture antibody was reconstituted in 1 ml of PBS to give a final concentration of 720 μg/ml, and the working concentration was 4 μg/ml. For coating one 96-well plate (at 100 μl/well) 56 μl of the 720 μg/ml stock was diluted into 10 ml of PBS. 2. The IL-1β standards were reconstituted in 0.5 ml of Reagent Diluent (70 ng/ml). For a high standard of 1 ng/ml (2 wells at 100 μl each+enough for series dilution) 7.1 μl of the 70 ng/ml standard were diluted into 0.5 ml of Reagent Diluent 3. The IL-1β detection antibody was reconstituted in 1 ml of Reagent Diluent to give a final concentration of 18 μg/ml and the working concentration is 100 ng/ml. For one 96-well plate (at 100 μl/well) 56 μl of the 18 μg/ml stock was diluted into 10 ml of Reagent Diluent.
1. The Costar EIA Hi-binding plate was coated with capture antibody at 4 μg/ml. Each well was coated with 100 μl, and the plate was sealed and incubated overnight at room temperature.
2. Each well was aspirated and washed 3× with Wash Buffer. Each well was filled to the top, dispensed, and any remaining buffer was removed by inverting the plate and gently blotting against clean paper towels.
3. Non-specific binding sites were blocked by adding 300 μl of Blocking Buffer to each well, and after sealing incubating for at least 1 hour at room temperature.
5. 100 μl of either standard or sample were added in each well of the capture-coated and pre-blocked plate. The plate was sealed and incubated for 2 hours at room temperature, followed with washing as in step 2.
6. 100 μl of the detection antibody ([…]) were added to each well.
7. The plate was sealed and incubated at room temperature for 2 hours, followed with washing as in step 2.
8. 100 μl of the working dilution of Streptavidin-HRP was added, and the plate was sealed and incubated in the dark for 20 minutes at room temperature, followed with washing as in Step 2.
9. The fresh Substrate Solution was prepared by mixing Color Reagent A (H2O2) and Color Reagent B (Tetramethylbenzidine) in a 1:1 ratio. 100 μl of this Substrate Solution mixture was added to each well and the plate was incubated in the dark for 20 minutes at room temperature. 10. 50 μl of Stop Solution was added to each well, mixing was ensured by gently tapping. 11. Each plate was read with the Spectramax once at 450 nm. Results

Structure (SMILES) | EC50 [1] [µM] | EC50 [2] [µM]
CCOC(=O)C1(C[S+]([O-])c2nc3ccccc3s2)OC(=O)C(O)=C1Sc1nc2ccccc2s1 (stereo not shown) [2-(Benzothiazole-2-sulfinylmethyl)-3-(benzothiazol-2-ylsulfanyl)-4-hydroxy-5-oxo-2,5-dihydro-furan-2-carboxylic acid ethyl ester] | ≤ 30 | ≤ 20
CCOC(=O)C1(CSc2nc3cc(OC)ccc3s2)OC(=O)C(O)=C1Sc1nc2cc(OC)ccc2s1 (stereo not shown) [4-Hydroxy-3-(5-methoxy-benzothiazol-2-ylsulfanyl)-2-(5-methoxy-benzothiazol-2-ylsulfanylmethyl)-5-oxo-2,5-dihydro-furan-2-carboxylic acid ethyl ester] | ≤ 30 | ≤ 20
CC(C)OC(=O)C1(CSc2nc3ccccc3s2)OC(=O)C(O)=C1Sc1nc2ccccc2s1 (stereo not shown) [3-(Benzothiazol-2-ylsulfanyl)-2-(benzothiazol-2-ylsulfanylmethyl)-4-hydroxy-5-oxo-2,5-dihydro-furan-2-carboxylic acid isopropyl ester] | ≤ 30 | ≤ 20
CCOC(=O)C1(CSc2nc(-c3ccccc3)cs2)OC(=O)C(O)=C1Sc1nc(-c2ccccc2)cs1 (stereo not shown) [4-Hydroxy-5-oxo-3-(4-phenyl-thiazol-2-ylsulfanyl)-2-(4-phenyl-thiazol-2-ylsulfanylmethyl)-2,5-dihydro-furan-2-carboxylic acid ethyl ester] | ≤ 30 | ≤ 20
CCOC(=O)C1(CSc2nccc(C(F)(F)F)n2)OC(=O)C(O)=C1Sc1nccc(C(F)(F)F)n1 (stereo not shown) [4-Hydroxy-5-oxo-3-(4-trifluoromethyl-pyrimidin-2-ylsulfanyl)-2-(4-trifluoromethyl-pyrimidin-2-ylsulfanylmethyl)-2,5-dihydro-furan-2-carboxylic acid ethyl ester] | ≤ 30 | ≤ 20
CCOC(=O)C1(CSCc2ccc(Cl)cc2Cl)OC(=O)C(O)=C1SCc1ccc(Cl)cc1Cl (stereo not shown) [3-(2,4-Dichloro-benzylsulfanyl)-2-(2,4-dichloro-benzylsulfanylmethyl)-4-hydroxy-5-oxo-2,5-dihydro-furan-2-carboxylic acid ethyl ester] | ≤ 30 | ≤ 20
CCOC(=O)C1(CSCc2c(F)cccc2Cl)OC(=O)C(O)=C1SCc1c(F)cccc1Cl (stereo not shown) [3-(2-Chloro-6-fluoro-benzylsulfanyl)-2-(2-chloro-6-fluoro-benzylsulfanylmethyl)-4-hydroxy-5-oxo-2,5-dihydro-furan-2-carboxylic acid ethyl ester] | ≤ 30 | ≤ 20
CCOC(=O)C1(CSc2ccc(F)cc2Cl)OC(=O)C(O)=C1Sc1ccc(F)cc1Cl (stereo not shown) [3-(2-Chloro-4-fluoro-phenylsulfanyl)-2-(2-chloro-4-fluoro-phenylsulfanylmethyl)-4-hydroxy-5-oxo-2,5-dihydro-furan-2-carboxylic acid ethyl ester] | ≤ 30 | ≤ 20
CCOC(=O)C1(CSc2nc3ccccc3n2C)OC(=O)C(O)=C1Sc1nc2ccccc2n1C (stereo not shown) [4-Hydroxy-3-(1-methyl-1H-benzoimidazol-2-ylsulfanyl)-2-(1-methyl-1H-benzoimidazol-2-ylsulfanylmethyl)-5-oxo-2,5-dihydro-furan-2-carboxylic acid ethyl ester] | ≤ 30 | ≤ 20
CCOC(=O)C1(C(=O)OCC)OC(=O)C(O)=C1SCc1ccc(F)cc1 [3-(4-Fluoro-benzylsulfanyl)-4-hydroxy-5-oxo-5H-furan-2,2-dicarboxylic acid diethyl ester] | ≤ 30 | ≤ 20
CCOC(=O)C1(CSCc2ccccc2)OC(=O)C(O)=C1SCc1ccccc1 (stereo not shown) [3-Benzylsulfanyl-2-benzylsulfanylmethyl-4-hydroxy-5-oxo-2,5-dihydro-furan-2-carboxylic acid ethyl ester] | ≤ 30 | ≤ 20
CCOC(=O)C1(CSc2ccc(C=CC(=O)OC)cc2)OC(=O)C(O)=C1Sc1ccc(C=CC(=O)OC)cc1 (stereo not shown) [4-Hydroxy-3-[4-(2-methoxycarbonyl-vinyl)-phenylsulfanyl]-2-[4-(2-methoxycarbonyl-vinyl)-phenylsulfanylmethyl]-5-oxo-2,5-dihydro-furan-2-carboxylic acid ethyl ester] | ≤ 30 | ≤ 20
CCOC(=O)CSCC1(C(=O)OCC)OC(=O)C(OC(=O)C(C)(C)C)=C1SCC(=O)OCC (stereo not shown) [4-(2,2-Dimethyl-propionyloxy)-3-ethoxycarbonylmethylsulfanyl-2-ethoxycarbonylmethylsulfanylmethyl-5-oxo-2,5-dihydro-furan-2-carboxylic acid ethyl ester] | ≤ 30 | ≤ 20
CCOC(=O)C1(CSc2nc3ccccc3s2)OC(=O)C(O)=C1Sc1nc2ccccc2s1 (stereo not shown) [3-(Benzothiazol-2-ylsulfanyl)-2-(benzothiazol-2-ylsulfanylmethyl)-4-hydroxy-5-oxo-2,5-dihydro-furan-2-carboxylic acid ethyl ester] | ≤ 30 | ≤ 20
CCOC(=O)C1(C[S+]([O-])Cc2ccco2)OC(=O)C(O)=C1[S+]([O-])Cc1ccco1 (stereo not shown) [3-(Furan-2-ylmethanesulfinyl)-2-(furan-2-ylmethanesulfinylmethyl)-4-hydroxy-5-oxo-2,5-dihydro-furan-2-carboxylic acid ethyl ester] | ≤ 30 | ≤ 20
CCOC(=O)C1(CSc2nc3ccccc3[nH]2)OC(=O)C(OCC)=C1Sc1nc2ccccc2n1CC (stereo not shown) [2-(1H-Benzoimidazol-2-ylsulfanylmethyl)-4-ethoxy-3-(1-ethyl-1H-benzoimidazol-2-ylsulfanyl)-5-oxo-2,5-dihydro-furan-2-carboxylic acid ethyl ester] | ≤ 30 | ≤ 20
CCOC(=O)C1(CSc2nc3ccc([N+](=O)[O-])cc3s2)OC(=O)C(O)=C1Sc1nc2ccc([N+](=O)[O-])cc2s1 (stereo not shown) [4-Hydroxy-3-(6-nitro-benzothiazol-2-ylsulfanyl)-2-(6-nitro-benzothiazol-2-ylsulfanylmethyl)-5-oxo-2,5-dihydro-furan-2-carboxylic acid ethyl ester] | ≤ 30 | ≤ 20
